Experiments:
[1] = tested on: FADD-deficient variant of human Jurkat T cells; experiment: TNF-α induced necroptosis inhibition, ATP-based viability assessment; format: cell-based; details: 10 ng/mL human TNF-α, 24 hours, CellTiter-Glo viability; for EC50: Jurkat
Protocol: (§1) Evaluation of necroptosis inhibitory activity was performed using a FADD-deficient variant of human Jurkat T cells or with L929 cells treated with TNF-α as previously described (Degterev et al., Nat. Chem. Biol. 1:112 (2005) and Jagtap et al., J. Med. Chem. 50: 1886 (2007)). Utilizing these conditions the cells efficiently underwent necroptosis. For EC50 value determinations, cells were treated with 10 ng/mL of human TNF-α in the presence of increasing concentration of test compounds for 24 hours followed by ATP-based viability assessment.
(§2) ATP-based viability assessment: Briefly, necroptosis activity was performed using a FADD-deficient variant of human Jurkat T cells or L929 cells treated with TNF-α. For EC50 value determinations, cells (500,000 cells/mL, 100 μL per well in a 96-well plate) were treated with 10 ng/mL of human TNF-α in the presence of increasing concentration of test compounds for 24 hours at 37° C. in a humidified incubator with 5% CO2 followed by ATP-based viability assessment. Stock solutions (30 mM) in DMSO were initially prepared and then diluted with DMSO to give testing solutions, which were added to each test well. The final DMSO concentration was 0.5%. Eleven compound test concentrations (0.030-100 μM) were used. Each concentration was done in duplicate.
(§3) Cell viability assessments were performed using a commercial luminescent ATP-based assay kit (CellTiter-Glo, Promega, Madison, Wis.) according to the manufacturer's instructions. Briefly, 40 μL of the cell lysis/ATP detection reagent was added to each well. Plates were incubated on a rocking platform for 10 minutes at room temperature and luminescence was measured using a Wallac Victor 3 plate-reader (Perkin Elmer, Wellesley, Mass.). Cell viability was expressed as a ratio of the signal in the well treated with TNF-α and compound to the signal in the well treated with compound alone. This was done to account for nonspecific toxicity, which in most cases was <10%. EC50 values were calculated using nonlinear regression analysis of sigmoid dose-response (variable slope) curves from plots of log [I] verses viability values.

L929 cells = experiment: as above; format: cell-based; details: 10 ng/mL human TNF-α, 24 hours, CellTiter-Glo viability; for EC50: Mus musculus, L929
Protocol: as §1, §2, §3

Structure (SMILES)	EC50 [1] [µM]	EC50 Fadd −/− Jurkat [1]	further results
COc1cc(C2CC(=O)NC(SCC(=O)Nc3nccs3)=C2C#N)cc(OC)c1OC (stereo not drawn) [(1)]	0.477	–	EC50 (L929 cells): 0.197 µM
N#CC1=C(SCC(=O)Nc2nccs2)NC(=O)CC1c1ccccc1F (stereo not drawn) [(2)]	0.769	–	–
N#CC1=C(SCC(=O)Nc2nccs2)NC(=O)CC1c1ccc(Cl)cc1 (stereo not drawn) [(3)]	0.823	–	–
COc1ccc(C2CC(=O)NC(SCC(=O)Nc3nccs3)=C2C#N)cc1OC (stereo not drawn) [(4)]	0.354	–	–
COC(=O)C1C(=O)NC(SCC(=O)Nc2nccs2)=C(C#N)C1c1ccc(Cl)cc1 (stereo not drawn) [(5)]	25	–	–
N#CC1=C(SCC(=O)Nc2nccs2)NC(=O)CC1c1ccccc1 (stereo not drawn) [(6)]	–	Partial activity	–
COc1ccccc1C1CC(=O)NC(SCC(=O)Nc2nccs2)=C1C#N (stereo not drawn) [(7)]	2.38	–	–
N#CC1=C(SCC(N)=O)NC(=O)CC1c1ccccc1 (stereo not drawn) [(8)]	–	inactive	–
COc1ccc(NC(=O)CSC2=C(C#N)C(c3cc(OC)c(OC)c(OC)c3)CC(=O)N2)cc1 (stereo not drawn) [(9)]	–	inactive	–
COc1cc(C2CC(=O)NC(SCC(=O)Nc3ccccc3)=C2C#N)cc(OC)c1OC (stereo not drawn) [(10)]	–	inactive	–
COc1cc(C2CC(=O)NC(SCC(=O)Nc3ccc(F)cc3)=C2C#N)cc(OC)c1OC (stereo not drawn) [(11)]	–	inactive	–
COc1cc(C2CC(=O)NC(SCC(=O)Nc3c(C)cc(C)cc3C)=C2C#N)cc(OC)c1OC (stereo not drawn) [(12)]	–	inactive	–
O=C(Nc1ccccc1)N1N=CCC1c1ccccc1 (stereo not drawn) [(17)]	–	inconclusive	–
CCN1CCN(CC(=O)N2N=CCC2c2ccccc2)CC1 (stereo not drawn) [(18)]	0.41	–	–
Cc1ccc(C(=O)C2=NNCC2c2ccccc2)cc1 (stereo not drawn) [(19)]	0.369	–	–
O=C(CSc1ccc(Cl)cc1)N1N=CCC1c1ccccc1 (stereo not drawn) [(20)]	3.21	–	–
O=C(CSc1nc2ccccc2s1)N1N=CCC1c1ccccc1 (stereo not drawn) [(21)]	1.56	–	–
Clc1ccc(-c2cc[nH]n2)cc1 [(22)]	–	Inactive	–
CCOC(=O)C1NN=C(C(=O)c2ccccc2)C1c1ccccc1 (stereo not drawn) [(23)]	–	Inactive	–
CCOC(=O)C1=NNC(C(=O)c2ccccc2)C1c1ccc(Cl)cc1 (stereo not drawn) [(24)]	–	Inactive	–
Cn1ccnc1SCC(=O)N1N=CCC1c1ccccc1 (stereo not drawn) [(25)]	–	Inactive	–
Cc1ccc2nc(SCC(=O)N3N=CCC3c3ccccc3)nc(C)c2c1 (stereo not drawn) [(26)]	–	Inactive	–
C#CC1(O)c2ccccc2C=Cc2ccccc21 [(28)]	2.98	–	–

Structure (SMILES)	EC50 [1] [µM]	EC50 Fadd −/− Jurkat [1]	further results
C#CC(O)(c1ccccc1)c1ccccc1 [(29)]	31.8	–	–
CCC1(O)c2ccccc2CCc2ccccc21 [(30)]	5.83	–	–
C=CC1(O)c2ccccc2CCc2ccccc21 [(31)]	2.95	–	–
C#CC1(O)c2ccccc2CCc2ccc(F)cc21 (stereo not drawn) [(32)]	2	–	–
C#CC1(O)c2ccccc2CCc2c(F)cccc21 (stereo not drawn) [(33)]	4.79	–	–
C#CC1(O)CCCCCC1 [(34)]	–	Inactive	–
C#CC1(O)c2ccccc2-c2ccccc21 [(35)]	–	Inactive	–
C#CC1(OC)c2ccccc2CCc2ccccc21 [(36)]	–	Inactive	–
C=C(Br)C1(Br)c2ccccc2CCc2ccccc21 [(37)]	–	Inactive	–
C=C(Cl)C1(Cl)c2ccccc2CCc2ccccc21 [(38)]	–	Inactive	–
OC1(C#CBr)c2ccccc2CCc2ccccc21 [(39)]	–	Inactive	–
CC#CC1(O)c2ccccc2CCc2ccccc21 [(40)]	–	Inactive	–
C#CC1(O)c2ccccc2CCc2c1ccc1ccccc21 (stereo not drawn) [(41)]	–	Inactive	–
C#CC1(O)c2cc(I)ccc2CCc2ccc(I)cc21 [(42)]	–	Inactive	–
C#CC1(O)c2cc([N+](=O)[O-])ccc2CCc2ccc([N+](=O)[O-])cc21 [(43)]	–	Inactive	–
C#CC1(O)c2ccccc2CCc2ccc(Br)cc21 (stereo not drawn) [(44)]	–	Inactive	–
C#CC1(O)c2ccccc2CCc2ccc(Cl)cc21 (stereo not drawn) [(45)]	–	Inactive	–
C#CC1(O)c2ccccc2CCc2ccc(C)cc21 (stereo not drawn) [(46)]	–	Inactive	–
CC(C)(O)C#CC1(O)c2ccccc2CCc2ccccc21 [(47)]	–	Inactive	–
Cc1sc2ncn(Cc3ccccc3)c(=O)c2c1C [(49)]	3.8	–	–
O=c1c2c3c(sc2ncn1Cc1cccc2cccnc12)CCC3 [(50)]	> 30	–	–
COc1ccc(F)cc1Cn1cnc2sc3c(c2c1=O)CCC3 [(51)]	10.9	–	–
COc1ccc(Cn2cnc3sc4c(c3c2=O)CCC4)cc1F [(52)]	3.05	–	–

Structure (SMILES)	EC50 [1] [µM]	EC50 Fadd −/− Jurkat [1]	further results
O=c1c2c3c(sc2ncn1Cc1cccc2ccccc12)CCC3 [(53)]	> 30	–	–
N#Cc1ccc(Cn2cnc3sc4c(c3c2=O)CCC4)cc1 [(54)]	0.861	–	–
O=c1cc(Cn2cnc3sc4c(c3c2=O)CCC4)c2ccccc2[nH]1 [(55)]	> 30	–	–
O=c1c2ccccc2ncn1Cc1ccc(Cl)cc1 [(56)]	> 30	–	–
O=c1c2c3c(sc2ncn1Cc1c(Cl)cccc1Cl)CCC3 [(57)]	0.936	–	–
CCSCC(=O)Nc1ccc(F)cc1 [(64)]	14.1	–	EC50 L929 (L929 cells): Inactive
Cc1ccc(Cn2ncc3ccccc32)cc1 [(65)]	3.62	–	EC50 L929 (L929 cells): Inactive
Cc1ccc(CN(C)C(=O)C2CCCCC2)o1 [(66)]	2.62	–	EC50 (L929 cells): 47.1 µM
CNC(Cc1ccccc1)=C1C(=O)CC(C)(C)CC1=O [(67)]	2.25	–	EC50 (L929 cells): 10 µM
CNS(=O)(=O)c1cccc(C(=O)OCC(=O)N2CCCc3ccccc32)c1 [(68)]	1.63	–	EC50 L929 (L929 cells): Inactive
O=C(NCc1cccs1)C1CCCCC1 [(69)]	7.72	–	EC50 L929 (L929 cells): Inactive
Cc1s/c(=N\C(=O)C2=NNC(=O)CC2)[nH]c1-c1ccc(F)cc1 [(70)]	0.908	–	EC50 L929 (L929 cells): Inactive
CC(C)(C)OC(=O)Nc1ccc(-c2cc[nH]n2)cc1 [Compound (13)]	5.38	–	EC50 (L929 cells): 0.89 µM
O=C(N1N=CCC1c1ccccc1)C12CC3CC(CC(C3)C1)C2 (stereo not drawn) [Compound (14)]	0.41	–	EC50 (L929 cells): 4.2 µM
O=C(C1=NNCC1c1ccccc1)c1ccccc1 (stereo not drawn) [Compound (15)]	0.369	–	EC50 (L929 cells): 4.02 µM
O=C(CSc1nnnn1-c1ccccc1)N1N=CCC1c1ccccc1 (stereo not drawn) [Compound (16)]	0.629	–	EC50 (L929 cells): 73 µM
C#CC1(O)c2ccccc2CCc2ccccc21 [Compound (27)]	3.23	–	EC50 (L929 cells): 0.659 µM
O=c1c2c3c(sc2ncn1Cc1ccccc1)CCC3 [Compound (48)]	0.216	–	EC50 (L929 cells): 8.66 µM
CCN(CC)S(=O)(=O)c1ccc(C(=O)/N=c2\[nH]ccs2)cc1 [Compound (58)]	8.96	–	EC50 (L929 cells): 1.11 µM
O=C1NC(Cc2c[nH]c3ccccc23)C(=O)N1Cc1ccc(Cl)cc1 (stereo not drawn) [Compound (59)]	0.343	–	EC50 (L929 cells): 7.46 µM
O=C(C1COc2ccccc2O1)N1CCc2ccccc21 (stereo not drawn) [Compound (60)]	0.629	–	EC50 (L929 cells): 23 µM
O=C(COc1ccccc1)N1CCc2ccccc21 [Compound (61)]	–	Inactive	–
c1ccc(C2CC3CC4(CCCC4)N2O3)cc1 (stereo not drawn) [Compound (62)]	0.668	–	EC50 (L929 cells): 10.1 µM
